How the values were obtained:
Conditions in all cases: in vivo
[1] = tested on: TIA (transient ischemic attack) symptoms
[2] = tested on: 12 mm right basal ganglia infarct (acute lacunar infarct); parameters: species or system human
[3] = tested on: subacute temporal lobe infarct with encephalomalacia; parameters: species or system human

Compound	clinical state the next day [1]	effect on penumbra of injury [1]	sedation (side effect) on the second night [1]	swallowing on the second night [1]	function after treatment [2]	leg weakness, expansion of the infarct, symptoms [2]	mental clarity noted by the patient [3]	vision in the right hemifield [3]
Cc1ncc2n1-c1ccc(Cl)cc1C(c1ccccc1F)=NC2 [midazolam, 8-chloro-6-(2-fluorophenyl)-1-methyl-4H-imidazo[1,5a][1,4]benzodiazepine]	sitting talking to relatives, mentating better but could not swallow their own saliva	preventing expansion of the penumbra of injury	drowsy	could swallow their own saliva				
CC12CC3CC(C)(C1)CC(N)(C3)C2 [memantine, 3,5-dimethyladamantan-1-amine]					returned to pre-stroke function	the weakness resolved and there was no further expansion of the infarct or worsening of symptoms	clearing of fogginess	unable to regain vision in the right hemifield
CN1C(=O)CN=C(c2ccccc2)c2cc(Cl)ccc21 [diazepam, 7-chloro-1,3-dihydro-1-methyl-5-phenyl-1,4-benzodiazepin-2(3H)-one]					returned to pre-stroke function	the weakness resolved and there was no further expansion of the infarct or worsening of symptoms	clearing of fogginess	unable to regain vision in the right hemifield
